Results on 1 compound are retold here after BindingDB's records for doi:10.1021/acs.jmedchem.1c01951 (University of South Carolina, 2022).

The experiment concerns the target T1, Myosin-IIIb (Homo sapiens, UniProt Q8WXR4).
T1 sequence (Q8WXR4 whole entry): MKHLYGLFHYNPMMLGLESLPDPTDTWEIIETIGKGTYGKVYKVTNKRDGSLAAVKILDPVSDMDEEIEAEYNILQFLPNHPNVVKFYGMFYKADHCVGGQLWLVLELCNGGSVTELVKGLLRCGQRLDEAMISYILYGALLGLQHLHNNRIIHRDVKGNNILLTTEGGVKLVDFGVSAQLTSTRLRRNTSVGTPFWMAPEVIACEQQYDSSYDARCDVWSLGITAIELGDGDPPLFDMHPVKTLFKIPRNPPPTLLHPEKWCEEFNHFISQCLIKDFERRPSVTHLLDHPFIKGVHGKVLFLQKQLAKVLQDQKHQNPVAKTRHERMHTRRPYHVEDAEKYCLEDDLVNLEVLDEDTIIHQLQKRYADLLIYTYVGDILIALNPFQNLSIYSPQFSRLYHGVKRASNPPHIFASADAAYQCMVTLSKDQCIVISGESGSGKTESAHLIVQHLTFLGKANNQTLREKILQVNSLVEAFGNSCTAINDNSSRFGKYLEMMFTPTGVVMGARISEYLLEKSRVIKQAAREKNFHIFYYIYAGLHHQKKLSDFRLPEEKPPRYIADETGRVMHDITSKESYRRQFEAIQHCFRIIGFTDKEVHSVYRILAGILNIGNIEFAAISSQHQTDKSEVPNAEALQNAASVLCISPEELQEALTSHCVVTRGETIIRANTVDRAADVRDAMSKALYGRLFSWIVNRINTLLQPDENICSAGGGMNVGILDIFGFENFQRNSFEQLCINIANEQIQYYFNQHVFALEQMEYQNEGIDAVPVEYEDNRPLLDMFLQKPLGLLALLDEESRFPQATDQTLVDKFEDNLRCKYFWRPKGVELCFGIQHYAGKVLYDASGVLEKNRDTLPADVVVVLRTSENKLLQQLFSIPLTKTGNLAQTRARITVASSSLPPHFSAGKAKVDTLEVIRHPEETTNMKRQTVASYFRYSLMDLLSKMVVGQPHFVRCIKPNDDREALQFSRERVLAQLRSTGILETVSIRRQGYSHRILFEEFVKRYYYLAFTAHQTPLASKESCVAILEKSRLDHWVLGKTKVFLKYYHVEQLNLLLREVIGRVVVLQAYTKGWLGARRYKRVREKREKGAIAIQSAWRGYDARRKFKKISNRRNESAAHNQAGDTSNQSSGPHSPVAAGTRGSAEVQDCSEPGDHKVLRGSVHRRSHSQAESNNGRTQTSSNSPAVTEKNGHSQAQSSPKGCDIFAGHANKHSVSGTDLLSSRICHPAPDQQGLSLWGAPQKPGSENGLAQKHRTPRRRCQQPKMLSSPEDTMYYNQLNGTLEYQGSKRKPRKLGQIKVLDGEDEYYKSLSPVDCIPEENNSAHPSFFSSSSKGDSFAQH
Put plainly: Binding affinity to human MYO3B assessed as dissociation constant by KdELECT Discover assay.

In general, Kd refers to the constant that tells how readily two partners part at equilibrium. On to `CN1CCN(C(=O)c2ccc3cc(CCNc4ccnc5ccc(C#N)cc45)ccc3c2)CC1`, for which the Kd was greater than 30 µM.
